Laboratory results from patent US6737383B1, “Herbicidal oxadiazolidines” (priority 1999, dated 2004).

Experiments:
cocklebur = assay: Test B pre/postemergence cocklebur; type: in vivo, Xanthium strumarium
Method in brief: (§1)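 Herbicidal effect was estimated by eye on a ten-point control scale after plants spent twelve to sixteen days in a greenhouse following soil or foliar treatment. Foliar sprays targeted plants at one to four leaves; all doses were formulated in a non-phytotoxic solvent with surfactant.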

soybean = assay: Test B pre/postemergence soybean; type: in vivo, Glycine max
Method in brief: as §1

velvetleaf = assay: Test B pre/postemergence velvetleaf; type: in vivo, Abutilon theophrasti
Method in brief: as §1

duck salad = assay: Test B flood test duck salad; type: in vivo, Heteranthera limosa; conditions: for Plant response rating, Ducksalad (0 to 10 scale, 0 is no effect, 10 is complete control) / Ducksalad plant response rating (0 to 10 scale, 0 is no effect, 10 is complete control): visual evaluation after twelve to sixteen days; for Ducksalad plant response rating (0 to 10 scale, 0 is no effect, 10 is complete control): under heading Pre-emergence
Method in brief: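 Each value is a visual injury score relative to controls, with 10 meaning complete control and 0 no effect. Evaluation took place twelve to sixteen days after the 2-leaf-stage plants were treated and kept in the greenhouse.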

[1] = Postemergence, Rate 250 g/ha, scale 0 to 10
[2] = Postemergence, Rate 500 g/ha, scale of 0 to 10 where 0 is no effect and 10 is complete control
[3] = Preemergence, Rate 62 g/ha, scale of 0 to 10 where 0 is no effect and 10 is complete control
[4] = Preemergence, Rate 125 g/ha, scale of 0 to 10 where 0 is no effect and 10 is complete control
[5] = Preemergence, Rate 250 g/ha, scale 0 to 10, 0 is no effect, 10 is complete control
[6] = Preemergence, Rate 500 g/ha, scale 0 to 10, 0 is no effect, 10 is complete control
[7] = Rate 62 g/ha, Postemergence, scale 0 to 10 (0 no effect, 10 complete control)
[8] = Rate 125 g/ha, Postemergence, scale 0 to 10, 0 is no effect, 10 is complete control
[9] = Rate 62 g/ha, flood test species, Pre-emergence
[10] = Rate 125 g/ha, flood test species
[11] = Rate 250 g/ha, Pre-emergence (flood test species), scale 0 to 10, 0 is no effect, 10 is complete control
[12] = Rate 500 g/ha, Pre-emergence, flood test species, scale 0 to 10 (0 no effect, 10 complete control)
[13] = Postemergence, Rate 62 g/ha, scale 0 to 10, 0 is no effect, 10 is complete control
[14] = Postemergence, Rate 250 g/ha, scale 0 to 10, 0 no effect, 10 complete control
[15] = Preemergence, Rate 62 g/ha, scale 0 to 10, 0 is no effect, 10 is complete control
[16] = Preemergence, Rate 125 g/ha, scale 0 to 10 (0 no effect, 10 complete control)
[17] = Preemergence, Rate 250 g/ha, scale of 0 to 10 where 0 is no effect and 10 is complete control
[18] = Preemergence, Rate 500 g/ha, scale 0 (no effect) to 10 (complete control)
[19] = Rate 125 g/ha, Postemergence, scale 0 to 10, 0 no effect, 10 complete control
[20] = Preemergence, Rate 500 g/ha, scale of 0 to 10 where 0 is no effect and 10 is complete control
[21] = Rate 62 g/ha, Postemergence, scale of 0 to 10 where 0 is no effect and 10 is complete control
[22] = Rate 125 g/ha, Postemergence, scale 0 to 10
[23] = Rate 125 g/ha, Preemergence, scale of 0 to 10 where 0 is no effect and 10 is complete control
[24] = Rate 500 g/ha, Postemergence, scale 0 to 10, 0 no effect, 10 complete control
[25] = Rate 62 g/ha, headed Pre-emergence (flood test species), scale 0 to 10 (0 no effect, 10 complete control)
[26] = Rate 125 g/ha, Pre-emergence, flood test species, scale 0 to 10 where 0 is no effect and 10 is complete control
[27] = Rate 250 g/ha, Pre-emergence, flood-test species, scale 0 to 10, 0 is no effect, 10 is complete control
[28] = Preemergence, Rate 125 g/ha, 0 is no effect, 10 is complete control
[29] = Rate 500 g/ha, Postemergence, scale 0 to 10
[30] = Preemergence, Rate 500 g/ha, scale 0 to 10 (0 no effect, 10 complete control)
[31] = Postemergence, Rate 125 g/ha, scale 0 to 10, 0 is no effect, 10 is complete control
[32] = Postemergence, Rate 250 g/ha, scale 0 to 10, 0 is no effect, 10 is complete control
[33] = Preemergence, Rate 62 g/ha, scale 0 to 10 (0 no effect, 10 complete control)
[34] = Postemergence, Rate 125 g/ha, scale of 0 to 10 where 0 is no effect and 10 is complete control
[35] = Postemergence, Rate 250 g/ha, scale of 0 to 10, 0 is no effect, 10 is complete control

CC(C)N(C(=O)n1oc(=O)n(CC2=NOCC2)c1=O)c1ccc(F)cc1 [Compound 466]
Cocklebur plant response rating (cocklebur; [1]): 0
Cocklebur plant response rating (cocklebur; [2]): 1
Plant response rating, Cocklebur (cocklebur; [3]): 0
Plant response rating, Cocklebur (cocklebur; [4]): 0
Cocklebur plant response rating (cocklebur; [5]): 0
Cocklebur plant response rating (cocklebur; [6]): 0
Cocklebur plant response rating (cocklebur; [7]): 0
Cocklebur plant response rating (cocklebur; [8]): 0
Soybean plant response rating (soybean; [1]): 4
Plant response rating, Soybean (soybean; [3]): 0
Plant response rating, Soybean (soybean; [4]): 2
Soybean plant response rating (soybean; [5]): 2
Soybean plant response rating (soybean; [6]): 4
Soybean plant response rating (soybean; [7]): 4
Soybean plant response rating (soybean; [8]): 4
Velvetleaf plant response rating (velvetleaf; [1]): 0
Plant response rating, Velvetleaf (velvetleaf; [3]): 0
Plant response rating, Velvetleaf (velvetleaf; [4]): 0
Velvetleaf plant response rating (velvetleaf; [5]): 4
Velvetleaf plant response rating (velvetleaf; [6]): 4
Velvetleaf plant response rating (velvetleaf; [7]): 0
Velvetleaf plant response rating (velvetleaf; [8]): 0
Plant response rating, Ducksalad (0 to 10 scale, 0 is no effect, 10 is complete control) (duck salad; [9]): 0
Ducksalad plant response rating (0 to 10 scale, 0 is no effect, 10 is complete control) (duck salad; [10]): 0
Ducksalad plant response rating (duck salad; [11]): 0
Ducksalad plant response rating (duck salad; [12]): 0

Cc1c(Cl)cccc1-n1c(=O)on(C(=O)N(c2ccc(F)cc2)C(C)C)c1=O [Compound 21]
Cocklebur plant response rating (cocklebur; [13]): 0
Cocklebur plant response rating (cocklebur; [14]): 5
Plant response rating, Cocklebur (cocklebur; [15]): 0
Plant response rating, Cocklebur (cocklebur; [16]): 0
Plant response rating, Cocklebur (cocklebur; [17]): 0
Cocklebur plant response rating (cocklebur; [18]): 0
Cocklebur plant response rating (cocklebur; [19]): 0
Cocklebur plant response rating (cocklebur; Rate 500 g/ha, Postemergence, 0 to 10 scale (0 no effect, 10 complete control)): 7
Soybean plant response rating (soybean; [13]): 2
Soybean plant response rating (soybean; [14]): 2
Plant response rating, Soybean (soybean; [15]): 0
Plant response rating, Soybean (soybean; [16]): 0
Plant response rating, Soybean (soybean; [17]): 0
Soybean plant response rating (soybean; [18]): 0
Soybean plant response rating (soybean; [19]): 2
Velvetleaf plant response rating (velvetleaf; [13]): 0
Velvetleaf plant response rating (velvetleaf; [14]): 0
Plant response rating, Velvetleaf (velvetleaf; [15]): 0
Plant response rating, Velvetleaf (velvetleaf; [16]): 0
Plant response rating, Velvetleaf (velvetleaf; [17]): 0
Velvetleaf plant response rating (velvetleaf; [18]): 0
Velvetleaf plant response rating (velvetleaf; [19]): 0
Ducksalad plant response rating (duck salad; [13]): 0
Ducksalad plant response rating (duck salad; Rate 125 g/ha, Postemergence section (flood test species), scale 0 to 10, 0 no effect, 10 complete control): 0
Ducksalad plant response rating (duck salad; Rate 500 g/ha, Postemergence section of Table B, 0 to 10 scale (0 no effect, 10 complete control)): 0
Ducksalad plant response rating (duck salad; flood test, listed under Postemergence, Rate 250 g/ha, scale 0 to 10, 0 no effect, 10 complete control): 0

COc1cc(C)cc(C)c1-n1c(=O)on(C(=O)N(c2ccc(F)cc2F)C(C)C)c1=O [Compound 223]
Cocklebur plant response rating (cocklebur; [3]): 0
Cocklebur plant response rating (cocklebur; [17]): 0
Plant response rating, Cocklebur (cocklebur; [20]): 0
Cocklebur plant response rating (cocklebur; [21]): 0
Cocklebur plant response rating (cocklebur; [22]): 0
Cocklebur plant response rating (cocklebur; [23]): 0
Plant response rating (0 to 10; 0 is no effect, 10 is complete control), Cocklebur (cocklebur; Rate 250 g/ha, Postemergence): 0
Cocklebur plant response rating (cocklebur; [24]): 2
Soybean plant response rating (soybean; [3]): 0
Soybean plant response rating (soybean; [17]): 0
Plant response rating, Soybean (soybean; [20]): 0
Soybean plant response rating (soybean; [21]): 3
Soybean plant response rating (soybean; [22]): 3
Soybean plant response rating (soybean; [23]): 0
Plant response rating (0 to 10; 0 is no effect, 10 is complete control), Soybean (soybean; Rate 250 g/ha, Postemergence): 3
Soybean plant response rating (soybean; [24]): 4
Velvetleaf plant response rating (velvetleaf; [3]): 0
Velvetleaf plant response rating (velvetleaf; [17]): 0
Plant response rating, Velvetleaf (velvetleaf; [20]): 0
Velvetleaf plant response rating (velvetleaf; [21]): 0
Velvetleaf plant response rating (velvetleaf; [22]): 0
Velvetleaf plant response rating (velvetleaf; [23]): 0
Plant response rating (0 to 10; 0 is no effect, 10 is complete control), Velvetleaf (velvetleaf; Rate 250 g/ha, Postemergence): 2
Velvetleaf plant response rating (velvetleaf; [24]): 3
Ducksalad plant response rating (duck salad; [25]): 0
Ducksalad plant response rating (duck salad; [26]): 0
Ducksalad plant response rating (duck salad; [27]): 0
Ducksalad plant response rating (duck salad; [12]): 0

Cc1ccccc1-n1c(=O)on(C(=O)N(c2ccc(Cl)cc2Cl)C(C)C)c1=O [Compound 185]
Cocklebur plant response rating (0 to 10 scale) (cocklebur; [28]): 0
Cocklebur plant response rating (cocklebur; [5]): 0
Cocklebur plant response rating (cocklebur; [21]): 0
Cocklebur plant response rating (cocklebur; [22]): 0
Plant response rating (0 to 10; 0 is no effect, 10 is complete control), Cocklebur (cocklebur; Rate 250 g/ha, Postemergence): 0
Cocklebur plant response rating (cocklebur; [29]): 2
Soybean plant response rating (soybean; [3]): 0
Soybean plant response rating (0 to 10 scale) (soybean; [28]): 0
Soybean plant response rating (soybean; [5]): 0
Soybean plant response rating (soybean; [30]): 0
Soybean plant response rating (soybean; [21]): 2
Soybean plant response rating (soybean; [22]): 2
Plant response rating (0 to 10; 0 is no effect, 10 is complete control), Soybean (soybean; Rate 250 g/ha, Postemergence): 3
Soybean plant response rating (soybean; [29]): 3
Velvetleaf plant response rating (velvetleaf; [3]): 0
Velvetleaf plant response rating (velvetleaf; [5]): 0
Velvetleaf plant response rating (velvetleaf; [30]): 0
Velvetleaf plant response rating (velvetleaf; [22]): 0
Plant response rating (0 to 10; 0 is no effect, 10 is complete control), Velvetleaf (velvetleaf; Rate 250 g/ha, Postemergence): 0
Ducksalad plant response rating (duck salad; [25]): 0
Ducksalad plant response rating (duck salad; [26]): 0
Ducksalad plant response rating (duck salad; [27]): 0
Plant response rating, Ducksalad (duck salad; Rate 500 g/ha, headed Pre-emergence (flood test species), scale 0 to 10 (0 no effect, 10 complete control)): 0

Cc1nsc(Cl)c1Cn1c(=O)on(C(=O)N(c2ccccc2)C(C)C)c1=O [Compound 374]
Plant response rating, Cocklebur (cocklebur; [31]): 0
Plant response rating, Cocklebur (cocklebur; [32]): 0
Plant response rating, Cocklebur (cocklebur; [33]): 0
Cocklebur plant response rating (0 to 10 scale) (cocklebur; Preemergence, Rate 125 g/ha): 0
Cocklebur plant response rating (cocklebur; [17]): 0
Cocklebur plant response rating (cocklebur; [20]): 0
Cocklebur plant response rating (cocklebur; [21]): 0
Plant response rating, Cocklebur (cocklebur; [24]): 0
Plant response rating, Soybean (soybean; [31]): 2
Plant response rating, Soybean (soybean; [32]): 2
Plant response rating, Soybean (soybean; [33]): 0
Soybean plant response rating (0 to 10 scale) (soybean; Preemergence, Rate 125 g/ha): 0
Soybean plant response rating (soybean; [17]): 0
Soybean plant response rating (soybean; [20]): 0
Soybean plant response rating (soybean; [21]): 2
Plant response rating, Soybean (soybean; [24]): 4
Plant response rating, Velvetleaf (velvetleaf; [31]): 0
Plant response rating, Velvetleaf (velvetleaf; [32]): 0
Plant response rating, Velvetleaf (velvetleaf; [33]): 0
Velvetleaf plant response rating (0 to 10 scale) (velvetleaf; Preemergence, Rate 125 g/ha): 0
Velvetleaf plant response rating (velvetleaf; [17]): 0
Velvetleaf plant response rating (velvetleaf; [20]): 0
Velvetleaf plant response rating (velvetleaf; [21]): 0
Plant response rating, Velvetleaf (velvetleaf; [24]): 1
Plant response rating, Ducksalad (0 to 10 scale, 0 is no effect, 10 is complete control) (duck salad; [9]): 0
Ducksalad plant response rating (0 to 10 scale, 0 is no effect, 10 is complete control) (duck salad; [10]): 0
Ducksalad plant response rating (duck salad; [27]): 0
Ducksalad plant response rating (duck salad; [12]): 0

CCC(C)n1c(=O)on(C(=O)N(c2ccccc2)C(C)C)c1=O (stereo not shown) [Compound 611]
Plant response rating, Cocklebur (cocklebur; [13]): 0
Plant response rating, Cocklebur (cocklebur; [34]): 2
Cocklebur plant response rating (cocklebur; [35]): 2
Plant response rating, Cocklebur (cocklebur; [2]): 3
Cocklebur plant response rating (cocklebur; [33]): 0
Cocklebur plant response rating (cocklebur; [4]): 0
Cocklebur plant response rating (0 to 10 scale) (cocklebur; Preemergence, Rate 250 g/ha): 0
Plant response rating, Cocklebur (cocklebur; [20]): 1
Plant response rating, Soybean (soybean; [13]): 5
Plant response rating, Soybean (soybean; [34]): 7
Soybean plant response rating (soybean; [35]): 8
Plant response rating, Soybean (soybean; [2]): 8
Soybean plant response rating (soybean; [33]): 2
Soybean plant response rating (soybean; [4]): 2
Plant response rating, Soybean (soybean; [20]): 7
Plant response rating, Velvetleaf (velvetleaf; [13]): 0
Plant response rating, Velvetleaf (velvetleaf; [34]): 3
Velvetleaf plant response rating (velvetleaf; [35]): 5
Plant response rating, Velvetleaf (velvetleaf; [2]): 5
Velvetleaf plant response rating (velvetleaf; [33]): 6
Velvetleaf plant response rating (velvetleaf; [4]): 6
Plant response rating, Velvetleaf (velvetleaf; [20]): 8
Plant response rating, Ducksalad (0 to 10 scale, 0 is no effect, 10 is complete control) (duck salad; [9]): 0
Ducksalad plant response rating (0 to 10 scale, 0 is no effect, 10 is complete control) (duck salad; [10]): 0
Ducksalad plant response rating (duck salad; [11]): 0
Ducksalad plant response rating (duck salad; Rate 500 g/ha, Pre-emergence section of Table B, 0 to 10 scale (0 no effect, 10 complete control)): 1
